We go through eight molecules from ChEMBL document CHEMBL1157154, “The synthesis of 5-substituted ring E analogs of methyllycaconitine via the Suzuki-Miyaura cross-coupling reaction” (Bioorg Med Chem, 2008).

The target of assay [1] is Neuronal acetylcholine receptor subunit alpha-7 (Bos taurus) (UniProt P54131). Put plainly: Displacement of [125I]alpha-bungarotoxin from bovine alpha7 nAChR expressed in HEK293 cells at 10 uM. It is filed as cell-based.
In assay [2] the target is Neuronal acetylcholine receptor subunit alpha-3 (Bos taurus) (UniProt Q07263). As to the kind of experiment: Displacement of [3H]epibatidine from bovine […] nAChR expressed in HEK293 cells at 10 uM. Format: cell-based. For orientation: Loss of bound radioactivity is the signal in a displacement assay; it reports binding, not function.
Assay [3] in a line: Inhibition of nicotin-stimulated neurosecretion in bovine adrenal gland. Format: functional, tissue-based, Bos taurus, Adrenal tissue.
For assay [4], the target named is Neuronal acetylcholine receptor subunit alpha-7 (Bos taurus, UniProt P54131). As to the kind of experiment: Displacement of [125I]alpha-bungarotoxin from bovine alpha7 nAChR expressed in HEK293 cells. Format: cell-based.
The target of assay [5] is Neuronal acetylcholine receptor subunit alpha-3 (Bos taurus) (UniProt Q07263). Put plainly: Displacement of [3H]epibatidine from bovine […] nAChR expressed in HEK293 cells at 1.0 uM. It is filed as cell-based.
The target in assay [6] is Neuronal acetylcholine receptor subunit alpha-7 (Bos taurus) (UniProt P54131). Put plainly: Displacement of [125I]alpha-bungarotoxin from bovine alpha7 nAChR expressed in HEK293 cells at 1.0 uM. It is filed as cell-based.

One may read the IC50 as the midpoint of a concentration-inhibition curve.

Sequence of Neuronal acetylcholine receptor subunit alpha-3 (Bos taurus) (Q07263 whole entry): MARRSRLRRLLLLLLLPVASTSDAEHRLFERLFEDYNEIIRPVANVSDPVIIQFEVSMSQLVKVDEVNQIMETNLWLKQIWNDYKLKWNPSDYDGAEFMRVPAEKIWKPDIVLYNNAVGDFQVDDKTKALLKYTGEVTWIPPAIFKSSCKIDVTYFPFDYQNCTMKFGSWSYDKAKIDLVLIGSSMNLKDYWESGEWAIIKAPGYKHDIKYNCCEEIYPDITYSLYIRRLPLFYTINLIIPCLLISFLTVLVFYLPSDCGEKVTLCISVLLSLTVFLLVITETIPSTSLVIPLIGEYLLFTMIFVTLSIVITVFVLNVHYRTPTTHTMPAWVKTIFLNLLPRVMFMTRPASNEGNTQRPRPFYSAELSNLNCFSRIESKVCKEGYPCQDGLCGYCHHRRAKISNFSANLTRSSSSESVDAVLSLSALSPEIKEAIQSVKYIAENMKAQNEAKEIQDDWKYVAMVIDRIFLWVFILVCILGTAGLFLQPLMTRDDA
Sequence of Neuronal acetylcholine receptor subunit alpha-7 (Bos taurus) (P54131 whole entry): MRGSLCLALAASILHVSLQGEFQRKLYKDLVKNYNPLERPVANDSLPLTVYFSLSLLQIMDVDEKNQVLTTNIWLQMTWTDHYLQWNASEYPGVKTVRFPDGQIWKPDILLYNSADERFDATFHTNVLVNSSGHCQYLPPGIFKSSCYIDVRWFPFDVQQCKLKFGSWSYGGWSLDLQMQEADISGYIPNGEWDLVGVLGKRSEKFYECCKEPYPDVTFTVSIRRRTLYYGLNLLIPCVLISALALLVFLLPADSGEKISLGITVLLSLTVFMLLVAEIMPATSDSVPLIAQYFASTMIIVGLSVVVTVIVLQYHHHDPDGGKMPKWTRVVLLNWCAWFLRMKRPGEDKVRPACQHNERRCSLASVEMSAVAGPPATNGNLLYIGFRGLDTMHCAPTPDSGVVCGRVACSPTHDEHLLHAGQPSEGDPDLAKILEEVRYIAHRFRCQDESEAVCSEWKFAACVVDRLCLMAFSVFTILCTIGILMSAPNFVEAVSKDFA
Sequence of Neuronal acetylcholine receptor subunit alpha-7 (P54131 whole entry): as above

As for `CC1CC(=O)N(c2ccccc2C(=O)OC[C@@H]2C[C@H](CC3CCCCC3)CN(CCCc3ccccc3)C2)C1=O` (stereo not given in full), the Activity in assay [1] is 92.6%.
For the molecule `CCCCCC[C@H]1C[C@@H](COC(=O)c2ccccc2N2C(=O)CC(C)C2=O)CN(CCCc2ccccc2)C1` (stereo not given in full), the Activity in assay [2] was found to be 105%; in assay [1], 92.2%. In assay [3], this molecule registered an IC50 of 2000 nM.
With `CC1CC(=O)N(c2ccccc2C(=O)OC[C@@H]2C[C@H](CCc3ccccc3)CN(CCCc3ccccc3)C2)C1=O` (stereo not given in full), the Activity in assay [2] came to 103%; in assay [1], 98.8%.
The molecule `CC1CC(=O)N(c2ccccc2C(=O)OC[C@@H]2CCCN(CCCc3ccccc3)C2)C1=O` (stereo not given in full) showed an IC50 in assay [4] of 177000 nM.
In the case of `CC1CC(=O)N(c2ccccc2C(=O)OC[C@@H]2C[C@H](CCCCCO[Si](C)(C)C(C)(C)C)CN(CCCc3ccccc3)C2)C1=O` (stereo not given in full), the Activity in assay [2] amounted to 118%; in assay [1], 88.8%. This molecule also yielded an IC50 in assay [3] of 2000 nM.
On to `CC1CC(=O)N(c2ccccc2C(=O)OC[C@@H]2C[C@H](C3CCCCC3)CN(CCCc3ccccc3)C2)C1=O` (stereo not given in full), for which the Activity in assay [1] is 103%.
As to `CC1CC(=O)N(c2ccccc2C(=O)OC[C@@H]2C[C@H](c3ccccc3)CN(CCCc3ccccc3)C2)C1=O` (stereo not given in full), the Activity turned out to be 86.8% in assay [2] and 94.3% in assay [1].
`CCN1C[C@]2(COC(=O)c3ccccc3N3C(=O)C[C@H](C)C3=O)CC[C@H](OC)[C@@]34[C@@H]5C[C@H]6[C@H](OC)[C@@H]5[C@](O)(C[C@@H]6OC)[C@](O)([C@@H](OC)[C@H]23)[C@@H]14`: the Activity in assay [5] was found to be 50.1%; in assay [6] it was 7.5%.
